Assay: xn = mol fraction of the nth substance listed
Conditions: 100 kPa

CCCC[n+]1ccn(C)c1.O=S(=O)([N-]S(=O)(=O)C(F)(F)F)C(F)(F)F + CCO
viscosity [mPa·s]
Conditions	x1 = 0.2129	x1 = 0.2688	x1 = 0.4215	x1 = 0.4606	x1 = 0.5784	x1 = 0.6609	x1 = 0.747	x1 = 0.8264	x1 = 1
293 K	5.22	6.47	12.72	13.9	–	24.9	32.4	40.9	63.5
293.3 K	5.19	6.42	12.59	–	20.5	24.6	–	40.4	62.7
293.61 K	5.15	–	12.47	13.7	20.4	24.4	31.8	39.9	–
293.91 K	–	6.33	12.34	–	20.2	–	31.4	39.4	61
294.21 K	5.08	6.28	–	13.42	20	–	31.1	38.9	–
294.52 K	5.05	6.24	12.1	13.3	19.8	23.7	–	–	–
294.82 K	5.01	6.19	–	13.18	19.6	23.5	30.5	38	–
295.12 K	4.98	6.15	–	13.06	19.4	23.3	–	37.6	57.8
295.42 K	–	–	11.75	–	19.2	23.1	29.9	37.1	57
295.73 K	4.91	6.06	11.64	12.82	19	22.8	29.5	–	56.3
296.03 K	4.87	6.02	11.52	12.7	18.9	22.6	29.2	36.2	55.6
296.33 K	4.84	5.98	11.41	12.59	18.7	22.4	28.9	35.8	54.8
296.64 K	4.81	–	11.31	–	18.5	22.2	28.6	35.4	–
296.94 K	4.77	5.89	11.2	–	18.34	22	–	35	53.4
297.24 K	4.74	–	–	12.25	–	21.8	–	34.5	52.7
297.55 K	4.71	5.81	10.99	12.14	18	21.6	27.8	–	52.1
297.85 K	4.68	5.77	10.88	12.04	17.83	21.4	27.5	33.7	–
298.15 K	–	–	10.78	11.93	17.67	21.2	27.2	33.3	50.8
298.45 K	4.61	5.69	10.68	11.82	17.5	–	–	33	50.1
298.76 K	4.58	5.65	–	11.72	17.34	20.8	26.7	–	49.5
299.06 K	–	5.61	10.49	11.62	–	–	26.4	32.2	48.9
299.36 K	4.52	5.57	10.39	11.52	17.03	20.4	26.2	31.8	48.3
299.67 K	4.48	5.53	10.29	–	16.87	20.2	25.9	31.5	47.7
299.97 K	–	5.49	10.2	11.31	–	20	25.6	31.1	47.1
300.27 K	–	5.45	–	11.22	16.56	19.9	–	–	46.5
300.58 K	4.39	5.41	–	11.12	16.41	19.7	25.1	30.4	45.9
300.88 K	4.36	–	–	11.02	16.26	19.5	24.9	30.1	45.4
301.18 K	4.33	–	9.84	10.93	16.11	19.3	24.6	29.7	44.8
301.48 K	–	5.3	9.75	10.83	15.97	19.1	24.4	29.4	44.3
301.79 K	4.27	5.26	9.66	10.74	15.82	19	24.2	29	43.7
302.09 K	4.24	5.22	9.57	10.65	15.68	18.8	23.9	28.7	43.2
302.39 K	4.21	5.19	9.49	–	15.54	18.6	23.7	28.4	42.7
302.7 K	–	–	9.41	10.47	15.4	18.5	–	–	42.2
303 K	4.15	5.11	9.32	–	15.26	18.3	–	27.8	41.7
303.3 K	4.13	–	9.24	10.29	15.12	18.1	23	27.4	41.2
303.61 K	4.1	5.04	9.16	10.2	14.99	18	22.8	27.1	40.7
303.91 K	4.07	5	9.08	10.12	14.85	17.8	22.6	–	40.2
304.21 K	4.04	4.97	9	10.03	14.72	17.6	22.3	26.5	39.8
304.52 K	4.01	4.93	8.92	–	–	17.5	22.1	26.2	–
304.82 K	3.98	–	–	9.87	14.46	17.3	–	26	38.9
305.12 K	3.96	4.86	8.77	9.78	14.33	17.1	21.7	25.7	–
305.42 K	3.93	4.83	8.7	9.7	14.2	16.99	21.5	25.4	38
305.73 K	3.9	4.8	8.62	9.62	14.07	16.84	21.3	25.1	37.5
306.03 K	3.88	–	8.55	9.54	13.95	16.69	21.1	24.8	37.1
306.33 K	3.85	4.73	8.48	9.46	–	16.54	20.9	–	36.7
306.64 K	3.82	–	8.41	9.39	13.7	–	20.7	24.3	36.2
306.94 K	–	4.66	8.34	9.31	13.58	16.24	20.5	24	35.8
307.24 K	3.77	4.63	–	–	13.46	16.09	20.3	23.8	35.4
307.55 K	3.74	4.6	8.2	9.16	13.34	15.95	20.1	23.5	35
307.85 K	3.72	4.56	8.13	9.08	13.23	15.81	19.9	23.3	34.7
308.15 K	3.69	–	8.06	9.01	13.11	–	19.7	23	34.3
308.45 K	–	4.5	7.99	8.94	13	–	–	22.8	33.9
308.76 K	3.64	4.47	–	8.86	–	15.39	–	22.5	33.5
309.06 K	3.61	–	7.86	8.79	12.77	15.25	19.2	22.3	33.1
309.36 K	3.59	4.4	7.8	8.72	12.66	15.11	19	22.1	32.8
309.67 K	3.56	4.37	–	8.65	12.55	14.98	18.8	21.8	–
309.97 K	3.54	4.34	7.67	–	12.44	14.85	–	21.6	32.1
310.27 K	3.52	4.31	7.61	8.51	12.33	14.71	18.4	21.4	31.7
310.58 K	3.49	4.28	7.55	8.44	12.22	14.58	–	21.1	31.4
310.88 K	–	4.25	7.49	8.38	–	14.45	18.09	–	31
311.18 K	3.44	4.22	7.43	–	12.01	14.33	17.92	20.7	30.7
311.48 K	–	4.19	7.37	8.24	11.91	14.2	17.75	20.5	30.4
311.79 K	3.39	4.16	7.31	–	–	14.07	–	–	30.1
312.09 K	3.37	–	7.25	8.11	11.7	–	17.42	20.1	29.7
312.39 K	3.35	–	7.19	–	11.6	13.83	17.26	19.8	29.4
312.7 K	3.32	–	7.13	7.98	11.5	13.7	17.1	19.6	29.1
313 K	3.3	4.04	7.08	7.92	11.4	13.58	–	19.4	–
313.3 K	3.28	4.02	–	7.86	11.3	13.46	16.78	19.2	28.5
313.61 K	3.26	3.99	6.96	7.8	11.21	13.34	16.62	–	28.2
313.91 K	3.23	3.96	6.91	7.74	11.11	–	–	18.8	27.9
314.21 K	–	–	6.86	7.68	11.02	13.11	–	18.6	27.6
314.52 K	3.19	3.9	6.8	7.62	–	13	–	18.5	27.3
314.82 K	3.17	3.88	6.75	7.56	10.83	–	16.02	18.3	27.1
315.12 K	3.14	3.85	6.7	7.5	10.74	12.77	15.87	–	26.8
315.42 K	3.12	–	6.64	7.44	10.64	–	15.72	17.9	26.5
315.73 K	3.1	3.79	–	7.38	–	–	15.58	17.7	26.2
316.03 K	3.08	–	6.54	7.33	10.46	12.44	15.43	17.5	26
316.33 K	3.06	3.74	6.49	–	10.38	12.33	15.29	17.4	25.7
316.64 K	3.03	3.71	–	7.21	–	12.22	15.15	17.2	–
316.94 K	3.01	3.69	6.39	7.16	10.2	–	15.01	–	25.2
317.24 K	2.99	3.66	6.34	7.1	10.11	–	14.88	16.9	24.9
317.55 K	2.97	–	–	7.05	–	11.91	14.74	16.7	24.7
317.85 K	2.95	3.61	–	6.99	9.94	–	14.6	16.5	–
318.15 K	2.93	–	6.2	–	9.86	11.7	14.47	16.3	24.2
318.45 K	2.91	3.56	6.15	6.89	9.78	11.6	14.34	–	23.9
318.76 K	2.89	3.53	6.1	–	–	11.5	14.21	16.02	–
319.06 K	–	3.51	6.06	6.78	9.61	11.4	14.08	15.86	23.5
319.36 K	2.85	3.48	6.01	6.73	9.53	11.3	13.95	15.71	23.2
319.67 K	2.83	3.46	–	6.68	9.45	11.2	–	15.55	23
319.97 K	2.81	3.43	5.92	–	–	11.1	13.7	15.4	22.8
320.27 K	2.79	3.41	5.88	6.58	–	11.01	–	–	22.6
320.58 K	2.77	3.38	–	6.53	9.22	10.91	13.45	15.09	22.3
320.88 K	2.75	3.36	5.79	6.48	9.14	10.82	13.33	14.95	22.1
321.18 K	2.73	3.34	5.74	–	9.06	–	13.21	14.8	21.9
321.48 K	2.71	3.31	5.7	6.38	8.99	10.63	–	14.66	21.7
321.79 K	2.69	–	5.66	–	8.91	10.54	12.97	14.51	21.5
322.09 K	–	3.27	–	6.29	8.84	10.45	12.86	14.37	–
322.39 K	2.65	3.24	5.58	6.24	8.76	10.36	–	14.23	21.1
322.7 K	2.63	3.22	5.53	6.19	8.69	10.27	–	14.09	20.9
323 K	2.62	3.2	5.49	–	8.62	10.18	12.51	13.96	20.7
